Assay results as given in PMC6530537, “Efficient development of stable and highly functionalised peptides targeting the CK2α/CK2β protein–protein interaction” (Chemical Science, 2019).
Changes are numbered by the printed parent chain.

Legend:
[1] = test system: CK2β localisation in U2OS cells; assay: Immunofluorescence imaging of subcellular localisation of CK2β; assay type: cell-based, human; details: 30 μM, 15 minute incubation, CK2β antibody
Description: (§1) CellCarrier Ultra) in 40 μL of growth medium.
(§2) 1.5.5. Co-localisation experiments […]
(§3) confocal microscope with a 40X water immersion objective. Images were acquired with excitation at […]
(§4) green, red and blue channel respectively.
(§5) The following primary antibodies were used:
(§6) Antibody Organelle stained Supplier and catalogue Working concentration […]
(§7) Calnexin Endoplasmic reticulum Invitrogen, PA5-34665 1:750
(§8) Hoechst nuclei stain was used to a working concentration of 1:5000. […]
(§9) concentration 4%). Cells were fixed for 15 minutes, washed with PBS (3x) and blocked with 3% BSA + 0.1 % […] for 5 minutes. The blocking solution was then removed and 40 μL of the primary antibodies in BSA added. The plate was stored in the dark, at 4 °C overnight. The primary antibodies were washed with PBS (3x) and 40 μL of the secondary antibodies and Hoechst nuclei stain in BSA added. The plate was kept at 4 °C for 1 hour, washed with PBS (3x) and imaged as described above. Images were analysed using Fiji (ImageJ) software.

CK2α [2] = target: T1, CK2α (Homo sapiens, UniProt P68400, K74A/K75A/K76A/R21S); assay: Isothermal titration calorimetry, direct binding to CK2α; details: for Kd: ITC, 25°C, CK2α_KA, Tris 200 mM, NaCl 300 mM, 10% DMSO, single site binding model
T1 construct: CK2α_KA (residues 2 -329) contained four; His6 (N, cleaved yes); made in house; host or cells: Escherichia coli BL21(DE3)
T1 sequence (P68400 2-329 R21S/K74A/K75A/K76A): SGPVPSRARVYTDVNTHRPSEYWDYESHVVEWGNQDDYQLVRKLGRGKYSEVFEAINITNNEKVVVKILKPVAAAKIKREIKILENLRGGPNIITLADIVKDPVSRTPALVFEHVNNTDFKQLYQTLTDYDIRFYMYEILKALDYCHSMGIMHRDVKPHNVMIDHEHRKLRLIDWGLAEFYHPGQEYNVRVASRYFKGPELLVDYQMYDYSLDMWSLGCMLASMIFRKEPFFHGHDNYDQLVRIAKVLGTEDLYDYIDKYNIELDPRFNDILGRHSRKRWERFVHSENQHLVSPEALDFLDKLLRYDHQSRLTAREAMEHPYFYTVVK
Description: lysed using a high-pressure homogeniser.
The soluble supernatant was applied on a […]
mM NaCl, 1mM DTT, 1mM EDTA, pH 8.5). 100µL of the precision protease was loaded onto the […]
Pure protein was concentrated to 15 mg/mL and flash frozen in liquid N2. […]
1.4.3. Isothermal Calorimetry Titration
1.4.3.1. Direct binding assay
DMSO) and concentrated to 20-50 μM. Compounds in 100× stock solutions were diluted into the […]
Control titrations were performed, and the […]

U2OS cells [3] = assay: Cell viability / apoptosis assay (CytoTox-Glo), 4 hour treatment; assay type: cell-based, human; details: after 4 hours
U2OS cells [4] = assay: cells; assay type: cell-based, human; details: 24 h
Description: (§10) page 47: 1.5. Biological experimental 1.5.1. […] The experiment was performed in duplicates. 1.5.2. […] 1.5.3. […] 46

HCT116 cells = assay: cells; assay type: cell-based, human; details: 24 h
Description: as §10

U2OS cells [5] = assay type: cell-based, human
Description: as §1, §2, §3, §4, §5, §6, §7, §8, §9

U2OS and HCT116 cells = details: proliferation, growth rate, viability (Fig. S5-S7)
Description: All cell lines used were supplied by AstraZeneca cell bank as mycoplasma free. U2OS bone
osteosarcoma and HCT116 colon carcinoma cells were maintained in RPMI -1640 (1x, Sigma Aldrich,
R0883) supplemented with 2 mM L-glutamine (Gibco, 25030-149) and fetal bovine serum (FBS, Gibco
Life Technologies, 10270-106) at a final concentration of 10%, hereafter known as growth medium. All
cells were grown at 37°C/5% CO2 in a humidified environment and all the assays were performed
using these culturing conditions.
HCT116 cells were seeded at 2000 cells per well into two flat-bottomed 384-well plates (PerkinElmer
CellCarrier Ultra) in 40 μL of growth medium. After 24 hours, the peptides dissolved in DMSO (10 mM)
were added to the cells (to final concentrations of 100, 75, 50, 32, 25, 16, 10, 7.7, 5, 3.2, 0 μM) using
HP Tecan dispenser and DMSO normalised to a final concentration of 1% (v/v). Cells were then
incubated in the presence of the compounds for 4 days and the rate of growth monitored with
IncuCyte Zoom (plate day 4). […]
inhibition was calculated relative to DMSO controls, normalised against day 0 and GI50 values were
calculated using Graphpad Prism. […]
minutes at room temperature, luminescence was read on a multimode plate reader (EnVision, […]
dead cells was measured. […]
calculated by subtracting the luminescent signal resulting from experimental cell death from total
luminescence death. […]

CK2α/CK2β interaction = target: T2, CK2α/CK2β interaction (Homo sapiens, UniProt P68400); assay: ITC competition assay: CK2β binding to CK2α alone and in the presence of peptide; details: 25°C, 100 μM peptide, preliminary assay
T2 construct: CK2α_WT was used (residues 2-329); His6 (N, cleaved yes); made in house; host or cells: Escherichia coli BL21(DE3)
T2 sequence (P68400 2-329): T1 sequence (P68400 2-329 R21S/K74A/K75A/K76A) with S20R, A73K, A74K, A75K
Description: (§11) We then wanted to investigate whether the peptides would be able to inhibit the binding of the β subunit to the α subunit. To this end, the binding affinity of the regulatory β subunit for the catalytic domain was determined via ITC (Kd 9 nM). This was then repeated in the presence of 100 μM P1-C4 and P2-C4 (ESI, Table S4 ^†). […] As one of the key roles of CK2β is to recruit substrates to the kinase, the effect of PPI inhibition on substrate phosphorylation was studied using CK2β dependent and independent substrates. […] It should be noted that the kinase assay was performed using the pre-formed CK2α/β complex as the ability of CK2α to phosphorylate eIF2β requires the presence of the CK2β subunit.
1.4.3.2. Competition assay […]
concentrated to 4-6 μM. CK2β (9.3 mg/mL, 20 mM Tris pH 8.5, 500 mM NaCl) was diluted in Tris buffer (200 mM, NaCl, 300 mM, 10% DMSO) and concentrated to 40 μM. In a typical experiment, […]
performed at 150 second intervals. The syringe was loaded with CK2β and rotated at 750 rpm. The same experiment was repeated in the presence of the peptide s: compounds at 1 mM in DMSO were added to the solutions of CK2α and CK2β (prepared as described above) to a final concentration of […]
binding model using Origin software. […]
(CK2β-RAD) 200s, baseline 120s (assay buffer), control loading 200s (RAD), baseline 150s (assay buffer), ligand binding (association) 400s (CK2α K74A and CAM7117) and ligand dissociation 600s (assay buffer), followed by regeneration and next cycles. […]
GraphPad. The results are the average of 4 repeats and error shown as SEM.
Figure S10- Sensorgrams of the BLI competition experiments to assess the ability of P2-C4 to […] the CK2α/CK2β-RAD complex. a) Concentration of peptide ranging from 10 to 0.025 μM and 0 μM. b) Concentration of peptide ranging from 10 to 5 nM and 0 nM.
(1 picture or pasted object on this page, not shown here)

CK2α/β holoenzyme = target: T3, CK2α/β holoenzyme (Homo sapiens, UniProt P68400); assay: ADP-Glo kinase assay, CK2β-dependent substrate eIF2β, pre-formed CK2α/β complex; assay type: biochemical; details: 50 nM CK2α_WT + 50 nM CK2β_WT pre-formed, 25 μM ATP, 50 μM eIF2β peptide, 25 °C, 120 min, at least three independent repeats, read-out: IC50, inhibition of phosphorylation of the CK2β-dependent substrate eIF2β
T3 construct: CK2α_WT was used (residues 2-329); His6 (N, cleaved yes); made in house; host or cells: Escherichia coli BL21(DE3)
T3 sequence (P68400 2-329): T1 sequence (P68400 2-329 R21S/K74A/K75A/K76A) with S20R, A73K, A74K, A75K
Description: as §11
(§12) The kinase assays were performed using the ADP-Glo™ kinase assay kit (Promega). 50 nM CK2α_WT was incubated in the kinase reaction buffer (40 mM Tris pH 7.5, 200 mM NaCl, 20 mM MgCl2, 0.1 mg/mL BSA, 25 μM ATP, 50 μM substrate peptide (RRRADDSDDDD, Enzo Life Sciences […]
(§13) Inc. or eIF2β peptide […]), 5% (v/v) DMSO) in the presence of different concentrations of the inhibitor at 25 °C for 120 min. […] The luminescence was recorded using a PHERAstar FS plate reader (BMG LABTECH) with an integration time of 1 sec.
(§14) Percentage inhibition was calculated relative to a DMSO control after subtraction of the measurement for basal ATPase activity in the absence of substrate. […]

CK2α [6] = target: T4, CK2α (Homo sapiens, UniProt P68400); assay: ADP-Glo kinase assay, β-independent substrate peptide RRRADDSDDDD; assay type: biochemical; details: 50 nM CK2α_WT, 25 μM ATP, 50 μM substrate, 25 °C, 120 min
T4 construct: CK2α_WT was used (residues 2-329); His6 (N, cleaved yes); made in house; host or cells: Escherichia coli BL21(DE3)
T4 sequence (P68400 2-329): T1 sequence (P68400 2-329 R21S/K74A/K75A/K76A) with S20R, A73K, A74K, A75K
Description: as §11, §12, §13, §14

CK2α/CK2β-RAD complex = target: T5, CK2α/CK2β-RAD complex (Homo sapiens, UniProt P68400, K74A/K75A/K76A/R21S); assay: Competition Bio-Layer Interferometry (BLI): formation of the CK2α/CK2β-RAD complex; assay type: binding; details: biotin-labelled CK2β-RAD 50 nM on streptavidin sensors, CK2α 50 nM, 20mM TRIS pH 8.0, 350mM NaCl, 0.5% Tween, average of 4 repeats, SEM, read-out: IC50, prevention of formation of the CK2α/CK2β-RAD complex
T5 construct: CK2α_KA (residues 2 -329) contained four; His6 (N, cleaved yes); made in house; host or cells: Escherichia coli BL21(DE3)
T5 sequence (P68400 2-329 R21S/K74A/K75A/K76A): T1 sequence (P68400 2-329 R21S/K74A/K75A/K76A)
Description: Octet RED96 (ForteBio) instrument was used for BLI analysis of biotin-labelled CK2β-RAD/CAM7117 interactions. Experiments were performed using SA-Streptavidin biosensors (ForteBio), which were regenerated with 10mM glycine, pH 1.7. 20mM TRIS pH 8.0, 350mM NaCl, 0.5% Tween was used as the assay buffer. For binding assays pre-wet sensors were loaded with biotin labelled CK2β-RAD protein at 50 nM in assay buffer. CK2α K74A was prepared at 50 nM in assay buffer and dilution series (from 0 to 10 μM) of CAM7117 were prepared in the assay buffer. The following experimental setup was used for each measurement cycle: regeneration 3× 5s, baseline 120s, sample loading (CK2β-RAD) 200s, baseline 120s (assay buffer), control loading 200s (RAD), baseline 150s (assay buffer), ligand binding (association) 400s (CK2α K74A and CAM7117) and ligand dissociation 600s (assay buffer), followed by regeneration and next cycles. During the control loading stage all […]
Regenerated SA-Streptavidin biosensors loaded with biotin labelled RAD were used to perform referencing. Data was processed using ForteBio Analysis 7.1 software and IC50 was calculated using GraphPad. The results are the average of 4 repeats and error shown as SEM. […]

Molecule: CC(=O)NCC(=O)N[C@H]1Cn2cc(nn2)-c2cc(C(=O)NCCCCCC(=O)NCCCCCC(=O)N[C@H](CCCNC(=N)N)C(=O)N[C@H](CCCNC(=N)N)C(=O)N[C@H](CCCNC(=N)N)C(N)=O)cc(c2)-c2cn(nn2)C[C@@H](C(=O)NCC(=O)NCC(N)=O)NC(=O)[C@H](Cc2c[nH]cn2)NC(=O)[C@H](Cc2c[nH]c3ccccc23)NC(=O)[C@H](CCCCN)NC(=O)[C@H](Cc2ccccc2)NC(=O)CNC(=O)[C@H](Cc2ccc(O)cc2)NC(=O)[C@H](CC(C)C)NC(=O)[C@H](CCCNC(=N)N)NC1=O [CAM7117]
- Nuclear localisation of CK2β after treatment [1]: little or no fluorescence associated with the CK2β antibody was found in the nucleus
- Kd (CK2α [2]): 200 nM
- Induction of apoptosis (U2OS cells [3]): induced apoptosis
- GI50 (U2OS cells [4]): 32 ± 2 µM
- GI50 (HCT116 cells): 76 ± 4 µM

Molecule: GXF2C4RLYGFKWHXF2C4GG (sidechain bridge or staple) [P2-F2C4, FITC-labelled analogue of CAM7117]
- Cellular uptake / cell permeability (U2OS cells [5]): successfully internalised

Molecule: C#Cc1cc(C#C)cc(C(=O)NCCCCCC(=O)NCCCCCC(=O)N[C@H](CCCNC(=N)N)C(=O)N[C@H](CCCNC(=N)N)C(=O)N[C@H](CCCNC(=N)N)C(N)=O)c1 [F1C4]
- Biological effects in cancer cells (U2OS and HCT116 cells): No biological effects

Molecule: CC(=O)NCC(=O)N[C@H]1Cn2cc(nn2)-c2cc(C(=O)O)cc(c2)-c2cn(nn2)C[C@@H](C(=O)NCC(=O)NCC(N)=O)NC(=O)[C@H](Cc2c[nH]cn2)NC(=O)[C@H](Cc2c[nH]c3ccccc23)NC(=O)[C@H](CCCCN)NC(=O)[C@H](Cc2ccccc2)NC(=O)CNC(=O)[C@H](Cc2ccc(O)cc2)NC(=O)[C@H](CC(C)C)NC(=O)[C@H](CCCNC(=N)N)NC1=O [P2-C4]
- Improvement in Kd of the constrained peptide compared to the linear variant P2 (CK2α [2]; ITC Kd, P2-C4 vs P2): 300 fold
- Kd (CK2α [2]): 150 nM
- Binding of CK2β to CK2α in the presence of peptide (CK2α/CK2β interaction): no binding of CK2β to CK2α was detected
- IC50 (CK2α/β holoenzyme): 206 ± 29 nM
- Effect on phosphorylation of a β-independent substrate peptide (RRRADDSDDDD) (CK2α [6]): did not affect the phosphorylation
- IC50 (CK2α/CK2β-RAD complex): 150 ± 19 nM
